Test results from patent US10980725B2, “Cosmetic compositions and method of treating the skin” (Johnson & Johnson Consumer Inc., priority 2017, dated 2021).
Read-outs that look alike come from different tables or passages of the source.

Legend:
[1] = tested on: interleukin 8 (IL-8 mRNA); assay: Gene expression of inflammatory mediator interleukin 8 in skin explant; type: cell-based, human; conditions: 48 h; for IL-8 mRNA expression in skin explant: topical; for IL-8 mRNA expression as compared to Neutrogena RWR (in words): skin explant
Experimental: (§1) Human skin explants were prepared as described by Bellemère et al. (Journal of Investigative Dermatology (2008) 128, 542-548), treated with 4 μl of compound (1) or (2) (Cpd (1) and Cpd (2) in the figure) at 2 concentrations: 10 μM and 100 μM and incubated at 37° C., 5% CO2 in 6-well plates containing 1.5 ml of medium during 48 h. After 48 h, the epidermis of each explant is detached from the dermis and (i) lysed for RNA extraction with Qiagen Rneasy kit, (ii) reverse transcripted using the thermocycler iCycler from Biorad and Applied Biosystems kit and (iii) analyzed for gene expression by performing a qPCR using the CFX96 Biorad Q-PCR system and Power Sybergreen PCR master mix from Applied Biosystems. All steps were performed according to the manufacturer's instructions. […] Compounds (1) and (2), used at doses of 10 μM and 100 μM, elicit retinol-like bioactivity, as shown by the induction of CRABP2 and HB-EGF gene expression.
Test Method 4 Gene Expression of Inflammatory Mediator Interleukin 8 (IL-8 mRNA)
The skin explant used in Test Method 3 was used to measure the expression of the gen for IL-8 mRNA.
As depicted in the Figure below, IL-8 mRNA expression is lower in explant treated with both compounds (1) and (2) as compared to Neutrogena RWR.

[2] = tested on: CRABP2 (cellular retinoic acid binding protein-II) gene expression; assay: CRABP2 gene expression in human skin explants (qPCR); type: cell-based; conditions: 48 h; for CRABP2 mRNA expression in skin explant: topical; for CRABP2 gene expression in human skin explants (in words): applied topically, 10 μM and 100 μM
Experimental: (§2) Test Method 3 CRABP2 (Cellular Retinoic Acid Binding Protein-II) and HBEGF (Heparin-Binding Epidermal Growth Factor-Like Growth Factor) Gene Expression in Human Explants
as §1

RARγ receptors = biological target: T1, RARγ receptors (Homo sapiens, UniProt P13631); assay: GenBLAzer RAR gamma cell-based assay, agonist mode (AG) and positive allosteric modulator mode (PAM); conditions: unit from horizontal axis of FIG. 1
T1 sequence (P13631 185-419 limits assumed): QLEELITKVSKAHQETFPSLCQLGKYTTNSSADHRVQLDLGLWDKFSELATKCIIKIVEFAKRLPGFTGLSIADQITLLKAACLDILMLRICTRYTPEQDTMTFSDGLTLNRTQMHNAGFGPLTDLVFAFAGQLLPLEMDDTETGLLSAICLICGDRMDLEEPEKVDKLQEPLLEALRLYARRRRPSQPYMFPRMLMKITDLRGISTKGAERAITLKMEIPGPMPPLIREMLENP
Experimental: Test Method 2 RARγ Receptors in Both Agonist Mode (AG) and Positive Allosteric Modulator Mode (PAM)
Dose response activity on RARγ receptors in both agonist mode (AG) and Positive allosteric modulator mode (PAM) was tested using Invitrogen's GenBLAzer® RAR gamma cell-based assay according to the manufacturer's instructions.

[3] = tested on: HBEGF (heparin-binding epidermal growth factor-like growth factor) gene expression; assay: HBEGF gene expression in human skin explants (qPCR); type: cell-based; conditions: 48 h; for HB-EGF gene expression in skin explant: topical; for HBEGF gene expression in human skin explants (in words): applied topically, 10 μM and 100 μM
Experimental: as §2, §1

[4] = biological target: T2, Human Retinoic Acid Receptor Gamma (Homo sapiens, UniProt P13631); assay: RARγ transactivation cellular assay (luciferase reporter, Indigo Biosciences #IB02001); type: cell-based; conditions: for RARγ transactivation (in words): 0.1 μM, 1 μM and 10 μM; for RARγ receptor transactivation values (ratio: RLU of tested material/RLU of control): 24 h incubation
T2 sequence (P13631 1-454): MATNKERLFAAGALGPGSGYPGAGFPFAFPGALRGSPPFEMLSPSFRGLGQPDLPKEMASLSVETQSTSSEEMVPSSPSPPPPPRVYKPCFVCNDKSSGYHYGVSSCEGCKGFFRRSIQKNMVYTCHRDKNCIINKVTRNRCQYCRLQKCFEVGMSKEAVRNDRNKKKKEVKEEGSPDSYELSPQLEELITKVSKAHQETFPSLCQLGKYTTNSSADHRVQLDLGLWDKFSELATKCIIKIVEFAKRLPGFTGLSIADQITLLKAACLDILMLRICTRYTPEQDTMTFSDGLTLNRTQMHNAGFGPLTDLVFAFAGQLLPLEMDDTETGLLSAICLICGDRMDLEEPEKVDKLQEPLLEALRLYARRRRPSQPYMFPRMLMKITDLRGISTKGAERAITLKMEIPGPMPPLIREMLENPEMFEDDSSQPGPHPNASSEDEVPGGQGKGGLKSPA
Experimental: Test Method 1 RARγ Transactivation Cellular Assay
This assay system uses non-human cells engineered to provide constitutive, high-level expression of the Human Retinoic Acid Receptor Gamma, a ligand-dependent transcription factor. Cells include the luciferase reporter gene functionally linked to a RARγ-responsive promoter. Thus, quantifying changes in luciferase expression in the treated reporter cells provides a sensitive measure of the changes in RARγ activity.
Engineered cells are seeded in 96-well plates and treated with the assessed compounds at 3 concentrations: 0.1 μM, 1 μM and 10 μM. After 24 h incubation, treatment media are discarded and Luciferase detection reagent is added. Light emission from each assay well is quantified using a plate-reading luminometer.

[5] = 10^−4M in vehicle (PG70/EtOH30)
[6] = 10^−5M in vehicle (PG70/EtOH30)
[7] = agonist mode, read-out: average EC50, dose response activity on RARγ in agonist mode
[8] = positive allosteric modulator mode, read-out: average EC50, dose response activity on RARγ in positive allosteric modulator mode

| Compound | IL-8 mRNA expression in skin explant [1, 5] | IL-8 mRNA expression in skin explant [1, 6] | IL-8 mRNA expression as compared to Neutrogena RWR (in words) [1] | CRABP2 mRNA expression in skin explant [2, 5] | CRABP2 mRNA expression in skin explant [2, 6] | CRABP2 gene expression in human skin explants (in words) [2] | EC50 (RARγ receptors; [7]) | EC50 (RARγ receptors; [8]) | HB-EGF gene expression in skin explant [3, 5] | HB-EGF gene expression in skin explant [3, 6] | HBEGF gene expression in human skin explants (in words) [3] | RARγ transactivation (in words) [4] | RARγ receptor transactivation values (ratio: RLU of tested material/RLU of control) ([4]; concentration 0.1 μM) | RARγ receptor transactivation values (ratio: RLU of tested material/RLU of control) ([4]; concentration 1 μM) | RARγ receptor transactivation values (ratio: RLU of tested material/RLU of control) ([4]; concentration 10 μM) |
| --- | --- | --- | --- | --- | --- | --- | --- | --- | --- | --- | --- | --- | --- | --- | --- |
| CC(/C=C/C=C(\C)c1ccc2c(c1)C(C)(C)C(C)(C)C2(C)C)=C\C(=O)O [Compound 1, (2E,4E,6E)-7-(1,1,2,2,3,3-hexamethyl-2,3-dihydro-1H-inden-5-yl)-3-methylocta-2,4,6-trienoic acid] | 410 % control | 422 % control | lower | 496 % control | 256 % control | induced | 0.0831 nM | 0.0301 nM | 513% | 218% | induced | showed RARγ transactivation | 10.6988 | 8.4578 | 6.506 |
| C=C(c1ccc(C(=O)O)cc1)c1ccc2c(c1)C(C)(C)C(C)(C)C2(C)C [Compound 2, 4-(1-(1,1,2,2,3,3-hexamethyl-2,3-dihydro-1H-inden-5-yl)vinyl)benzoic acid] | 690 % control | 334 % control | lower | 340 % control | 191 % control | induced | 7.1 ± 0.7 nM | 6.7 ± 2.7 nM | 358% | 173% | induced | showed RARγ transactivation | 5.5663 | 3.253 | 6.7229 |
